Test results: US12714698B2, “Compositions and methods for treating or preventing dermal disorders” (Drexel University, priority 2015, dated 2026)

How the values were obtained:
[1] = test system: human cardiac fibroblasts; assay: Immunoblot of electron transport chain and mitochondrial clearance proteins; format: cell-based
Procedure: Cell culture experiments utilizing NRTIs were of the following design. Cultures of either human lung or cardiac fibroblasts were cultivated according to standard culture protocols for these cells (Cristofalo, et al., Journal of Tissue Culture Methods 1980, 6:117-121). Parallel sets of cultures were maintained in normal growth media or in normal growth media with the addition of 1 nM rapamycin. Cultures were maintained with 1 nM rapamycin (Enzo Biologicals) for two weeks before exposure to NRTIs. Cell cultures were exposed to NRTIs at indicated concentrations in individual experiments (generally 10-20 μg/ml) for 7 days, with a change of media and fresh NRTIs at day 4. Mitochondrial measurements, bioanalyzer measurements, immunoblotting for protein expression and phosphorylation status, and assays for senescence were performed at the end of this 7-day period.
Cell protein extracts were prepared by extracting with radioimmunoprecipitation assay (RIPA) buffer containing a protease inhibitor cocktail (Sigma-Aldrich) and phosphatase inhibitors, NaF and sodium orthovanadate. Protein concentration was quantified using a bicinchoninic acid (BCA) assay (Pierce Biotechnology). Western blot analysis was performed using 15 to 30 μg of protein extracts that were run on SDS-PAGE and transferred onto nitrocellulose (Biorad) membranes. Blots were incubated with antibodies specific for: beta-actin (Sigma-Aldrich), TFAm, parkin, p16, phospho(S82)HSP27, HSP27 (Santa Cruz Biotechnologies), p53, 21, catalase, MDM2 (EMD Millipore), VDAC, phospho(S235/236)-ribosomal protein S6, ribosomal protein S6, phospho(S166)-MDM2, phospho(5473)-AKT, AKT, beta-tubulin (Cell Signaling), p62 (Enzo Biologicals), IL-6 (NeoBiolab), lamin B1, PINK1, and Mitoprofile Total OXPHOS Cocktail (complex I-NDUFB8 subunit, CII-SDHB subunit, CIIIUQCRC2 subunit, and CIV-mitochondrial COX1 subunit) (Abcam) according to manufacturers' instructions. […] For co-immunoprecipitation, cell protein extracts were prepared in HNTG buffer containing a protease inhibitor cocktail and quantified using BCA assay. […]

[2] = test system: p53 and MDM2; assay: p53/MDM2 co-immunoprecipitation and p53 forms after proteasome inhibition; format: cell-based, human; conditions: after proteasome inhibitor
Procedure: FIGS. 11A-11F illustrate status of p53 in human cardiac fibroblast cultures exposed to NRTIs and in rapamycin-treated cultures. FIG. 11A is a bar graph illustrating comet assay results for cells exposed to NRTIs or hydrogen peroxide as a positive control. The white bar represents control data; grey bar represents data from cells exposed to 10 or 20 μg/ml NRTI for 7 days; and the black bar represents data from cells exposed to 200 μM hydrogen peroxide for 2 hours. […] FIG. 11B depicts the results of an immunoprecipitation experiment using antibodies against p53. Cell lysates from control and rapamycin-treated cultures, with or without NRTI exposure for 7 days, were subjected to immunoprecipitation using anti-p53 antibodies followed by immunoblot analysis for MDM2 and subsequently for p53. […] FIG. 11F is a bar graph illustrating relative intensity of cytosolic MDM2 staining as determined by Image J Analysis.
Cell protein extracts were prepared by extracting with radioimmunoprecipitation assay (RIPA) buffer containing a protease inhibitor cocktail (Sigma-Aldrich) and phosphatase inhibitors, NaF and sodium orthovanadate. Protein concentration was quantified using a bicinchoninic acid (BCA) assay (Pierce Biotechnology). […] For co-immunoprecipitation, cell protein extracts were prepared in HNTG buffer containing a protease inhibitor cocktail and quantified using BCA assay. […]

[3] = test system: human cardiac fibroblasts; assay: Mitochondrial respiration, Seahorse XF24 Bioanalyzer; format: cell-based
Procedure: Cell culture experiments utilizing NRTIs were of the following design. Cultures of either human lung or cardiac fibroblasts were cultivated according to standard culture protocols for these cells (Cristofalo, et al., Journal of Tissue Culture Methods 1980, 6:117-121). Parallel sets of cultures were maintained in normal growth media or in normal growth media with the addition of 1 nM rapamycin. Cultures were maintained with 1 nM rapamycin (Enzo Biologicals) for two weeks before exposure to NRTIs. […] Mitochondrial measurements, bioanalyzer measurements, immunoblotting for protein expression and phosphorylation status, and assays for senescence were performed at the end of this 7-day period. Mitochondrial function was measured using the XF cell mito stress test kit on a Seahorse XF24 Bioanalyzer (Seahorse Bioscience). Cells were seeded at a density of 15,000 cells per well in an XF24 microplate. Following acquisition, results were normalized based upon 10^6 cells counted using a Guava EasyCyte Mini (Millipore), where applicable. […] Respiration rates and proton leak were assessed as outlined in published methods (Hill, et al., Biological chemistry 2012, 393:1485-1512). Mitochondrial respiration was calculated based upon oxygen consumption rate measurements in triplicates from cells seeded in at least quadruplicates. Basal respiration represents the initial oxygen consumption rate measurements and maximal respiration represents the oxygen consumption rate measurements following FCCP addition. ATP-linked respiration is represented as the oligomycin-sensitive oxygen change to basal oxygen consumption rate. Proton leak represents the oligmycin insensitive oxygen consumption rate. […] All data was normalized to cell number by counting cells in each well at the completion of the mitochondrial assessments.

Structure (SMILES): CO[C@H]1C[C@@H]2CC[C@@H](C)[C@@](O)(O2)C(=O)C(=O)N2CCCC[C@H]2C(=O)O[C@H]([C@H](C)C[C@@H]2CC[C@@H](O)[C@H](OC)C2)CC(=O)[C@H](C)/C=C(\C)[C@@H](O)[C@@H](OC)C(=O)[C@H](C)C[C@H](C)/C=C/C=C/C=C/1C [rapamycin]
- steady state levels of NDUFB8, SDHB, UQCRC2 and mt-CO1 ([1]; cells treated with rapamycin vs control): lower
- ETC protein levels on exposure to NRTIs ([1]; rapamycin-treated cells): not elevated
- level of p62/SQSTM1 ([1]; response to rapamycin): decreased
- high molecular weight forms of p53 [2]: prominent
- basal respiration ([3]; rapamycin-treated (1 nM) vs standard culture): significantly lower
- basal respiration when exposed to NRTIs ([3]; rapamycin-treated cells (1 nM)): did not exhibit an increase
- maximal respiration when exposed to NRTIs ([3]; rapamycin-treated cells (1 nM)): did not exhibit an increase
- proton leak following exposure to NRTIs ([3]; rapamycin-treated cells (1 nM)): did not exhibit an increase
- ATP-linked respiration ([3]; rapamycin-treated cultures (1 nM)): reduced
